Publication PMC7940609, “Hyperproduction of 3-hydroxypropionate by Halomonas bluephagenesis” (Nature Communications, 2021)

Experiments:
[1] = molecular target: T1, AldDPp (Pseudomonas putida, UniProt Q88QE9); experiment: specific activity, NADH formation; type: biochemical; conditions: 2.0 mM 3HPA, 2.0 mM NAD+, 100 mM potassium phosphate pH 8.0, 1 mM DTT, 37 °C
T1 construct: gene aldB-I; N-terminal His-tag (plasmid p98), expressed in and purified from H. bluephagenesis TDΔdddA
T1 sequence (Q88QE9 1-506): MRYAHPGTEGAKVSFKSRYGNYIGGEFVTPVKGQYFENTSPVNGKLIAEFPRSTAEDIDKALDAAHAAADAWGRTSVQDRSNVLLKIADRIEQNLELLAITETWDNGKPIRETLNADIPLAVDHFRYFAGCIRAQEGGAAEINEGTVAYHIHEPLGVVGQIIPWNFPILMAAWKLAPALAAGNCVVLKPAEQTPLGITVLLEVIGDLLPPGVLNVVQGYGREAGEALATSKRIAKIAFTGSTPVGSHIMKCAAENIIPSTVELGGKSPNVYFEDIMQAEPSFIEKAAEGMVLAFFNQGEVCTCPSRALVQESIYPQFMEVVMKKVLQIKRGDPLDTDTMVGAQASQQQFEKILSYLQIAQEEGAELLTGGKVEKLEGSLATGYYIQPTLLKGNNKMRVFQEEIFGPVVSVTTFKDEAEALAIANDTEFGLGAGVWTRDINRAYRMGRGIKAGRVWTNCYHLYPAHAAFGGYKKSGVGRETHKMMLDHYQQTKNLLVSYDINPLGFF

[2] = molecular target: T2, AldH (Escherichia coli, UniProt P23883); experiment: specific activity, NADH formation; type: biochemical; conditions: 2.0 mM 3HPA, 2.0 mM NAD+, 100 mM potassium phosphate pH 8.0, 1 mM DTT, 37 °C
T2 construct: gene puuC; N-terminal His-tag (plasmid p99), expressed in and purified from H. bluephagenesis TDΔdddA
T2 sequence (P23883 1-495): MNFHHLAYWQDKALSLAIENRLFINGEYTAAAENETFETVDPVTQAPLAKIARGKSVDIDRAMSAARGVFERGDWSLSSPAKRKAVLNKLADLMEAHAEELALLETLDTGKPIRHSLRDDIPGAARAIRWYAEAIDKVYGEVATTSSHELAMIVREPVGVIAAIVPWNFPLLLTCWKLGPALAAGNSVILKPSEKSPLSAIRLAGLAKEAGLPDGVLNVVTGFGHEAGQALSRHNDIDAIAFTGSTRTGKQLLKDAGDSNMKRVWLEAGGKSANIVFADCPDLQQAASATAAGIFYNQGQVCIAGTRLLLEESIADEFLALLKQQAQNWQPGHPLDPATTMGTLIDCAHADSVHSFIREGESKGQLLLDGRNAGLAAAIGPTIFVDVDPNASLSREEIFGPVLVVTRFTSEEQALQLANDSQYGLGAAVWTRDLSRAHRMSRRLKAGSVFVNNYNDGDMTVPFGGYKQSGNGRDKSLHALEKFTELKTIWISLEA

[3] = molecular target: T3, PuuC (Klebsiella pneumoniae, UniProt A0A378BL98); experiment: specific activity, NADH formation; type: biochemical; conditions: 2.0 mM 3HPA, 2.0 mM NAD+, 100 mM potassium phosphate pH 8.0, 1 mM DTT, 37 °C
T3 construct: N-terminal His-tag (plasmid p100), expressed in and purified from H. bluephagenesis TDΔdddA
T3 sequence (A0A378BL98 1-495): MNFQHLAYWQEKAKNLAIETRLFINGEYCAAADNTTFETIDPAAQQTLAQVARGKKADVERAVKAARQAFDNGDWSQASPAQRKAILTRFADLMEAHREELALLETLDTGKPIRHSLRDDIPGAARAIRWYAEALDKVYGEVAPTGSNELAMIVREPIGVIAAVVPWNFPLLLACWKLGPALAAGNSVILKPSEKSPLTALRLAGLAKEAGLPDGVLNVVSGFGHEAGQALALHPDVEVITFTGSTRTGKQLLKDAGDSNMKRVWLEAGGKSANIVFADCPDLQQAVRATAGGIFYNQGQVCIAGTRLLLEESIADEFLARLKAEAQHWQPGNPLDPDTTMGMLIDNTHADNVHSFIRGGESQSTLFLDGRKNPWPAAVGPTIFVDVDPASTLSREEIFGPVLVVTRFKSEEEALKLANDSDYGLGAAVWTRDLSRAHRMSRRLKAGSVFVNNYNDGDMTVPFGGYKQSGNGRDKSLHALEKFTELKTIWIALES

[4] = molecular target: T4, DhaTKp (Klebsiella pneumoniae, UniProt Q7WRJ3); experiment: specific activity, NADH formation; type: biochemical; conditions: 150 mM 1,3-propanediol, 2 mM NAD+, 100 mM potassium carbonate pH 9.0, 30 mM ammonium sulfate, 37 °C
T4 construct: gene dhaT; C-terminal His-tag (plasmid p95), expressed in and purified from H. bluephagenesis TDΔdddA
T4 sequence (Q7WRJ3 1-387): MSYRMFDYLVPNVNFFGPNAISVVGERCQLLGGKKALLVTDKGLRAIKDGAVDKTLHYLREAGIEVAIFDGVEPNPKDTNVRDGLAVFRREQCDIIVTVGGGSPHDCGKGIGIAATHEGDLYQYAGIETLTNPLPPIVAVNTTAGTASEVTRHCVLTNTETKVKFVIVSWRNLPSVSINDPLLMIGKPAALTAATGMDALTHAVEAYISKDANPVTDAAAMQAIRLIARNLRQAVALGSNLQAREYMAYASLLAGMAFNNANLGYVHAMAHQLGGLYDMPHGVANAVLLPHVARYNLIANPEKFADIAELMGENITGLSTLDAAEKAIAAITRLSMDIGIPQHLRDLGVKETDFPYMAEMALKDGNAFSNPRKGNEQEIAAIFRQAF

[5] = molecular target: T5, DhaTPp (Pseudomonas putida, UniProt Q88J46); experiment: specific activity, NADH formation; type: biochemical; conditions: 150 mM 1,3-propanediol, 2 mM NAD+, 100 mM potassium carbonate pH 9.0, 30 mM ammonium sulfate, 37 °C
T5 construct: gene dhaT; C-terminal His-tag (plasmid p92), expressed in and purified from H. bluephagenesis TDΔdddA
T5 sequence (Q88J46 1-394): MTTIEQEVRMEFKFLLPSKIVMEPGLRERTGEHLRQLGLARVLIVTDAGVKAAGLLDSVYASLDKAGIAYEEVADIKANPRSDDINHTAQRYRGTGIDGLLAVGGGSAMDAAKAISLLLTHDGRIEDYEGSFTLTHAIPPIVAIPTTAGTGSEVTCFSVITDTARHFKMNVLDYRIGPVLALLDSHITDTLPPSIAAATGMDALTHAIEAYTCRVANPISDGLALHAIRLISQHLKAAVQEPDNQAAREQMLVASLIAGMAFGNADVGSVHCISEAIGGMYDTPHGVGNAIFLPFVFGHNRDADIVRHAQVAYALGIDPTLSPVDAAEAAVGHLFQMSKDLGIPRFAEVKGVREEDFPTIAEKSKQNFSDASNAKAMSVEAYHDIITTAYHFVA

[6] = substrate: O=CCCO; experiment: purified protein; type: biochemical, Halomonas sp. TD01; conditions: 2 mM NAD+, 50 mM potassium phosphate pH 8.0, 1.0 mM DTT, 37 °C

O=CCCO [3HPA]
specific activity, NADH formation [1]: four different aldehyde dehydrogenases (AldDHb, AldDPp, AldH, and PuuC) were analyzed | specific activity, NADH formation [2]: four different aldehyde dehydrogenases (AldDHb, AldDPp, AldH, and PuuC) were analyzed | specific activity, NADH formation [3]: four different aldehyde dehydrogenases (AldDHb, AldDPp, AldH, and PuuC) were analyzed

OCCCO [1,3-propanediol]
specific activity, NADH formation [4]: higher than the alcohol dehydrogenase of P. putida DhaTPp and K. pneumoniae DhaTKp | specific activity, NADH formation [5]: higher than the alcohol dehydrogenase of P. putida DhaTPp and K. pneumoniae DhaTKp

B1: AldDHb (Halomonas sp. TD01) (protein)
chain: MIYANPGDAGSVVSFEKRFGNYIGGEFVPPVNGQYFDNISPVNGQVFCEIPRSSAEDIEKALDAAHKAAPAWGKTSVQERSNILLKIADRLEQNLEMLAVAETWDNGKAVRETLNADIPLAVDHFRYFAGCLRSQEGTAADIDANTVAYHFHEPLGVVGQIIPWNFPILMAAWKLGPALAAGNCVILKPAEQTPASILKVMEVIGDLLPPGVLNVVNGFGAEAGQALATSKRIAKIAFTGSTPVGSHILKCAAENIIPSTVELGGKSPNIYFADIMNAEPTFIDKAVEGLVLAFFNQGEVCTCPSRALIQESMYDEFMAKVVERTKTIKRGNPLDTDVQVGAQASQEQFDKIMSYMDIARDEGAEFLAGGDKESLDDSINGGYYIQPTLLKGNNKMRVFQEEIFGPVVAVTTFKDEEEALAIANDTEFGLGAGVWSRDINVAFRMGRGIQAGRVWTNCYHQYPAHAAFGGYKKSGVGRETHKVALEHYQQTKNLLVSYDINPLGFF
notes: 506 residues, C-terminal His-tag (plasmid p91), expressed in and purified from H. bluephagenesis TDΔdddA
Km [6]: 50 ± 2 µM | kcat [6]: 3.38 ± 0.09 s⁻¹ | kcat/Km [6]: 67400 ± 797 M⁻¹ s⁻¹
